From patent publication US20210145774A1, “Treatment of alcoholic liver disease” (CymaBay Therapeutics, Inc., priority 2019, published 2021)

How the values were obtained:
[1] = test system: atherogenic diet-fed obese diabetic (Alms1 mutant (foz/foz)) mice; conditions: foz/foz mice on atherogenic diet; cited from earlier work
PPARα = target: T1, PPARα (Homo sapiens, UniProt Q07869); test: Specificity compared with PPARα
T1 sequence (Q07869 1-468): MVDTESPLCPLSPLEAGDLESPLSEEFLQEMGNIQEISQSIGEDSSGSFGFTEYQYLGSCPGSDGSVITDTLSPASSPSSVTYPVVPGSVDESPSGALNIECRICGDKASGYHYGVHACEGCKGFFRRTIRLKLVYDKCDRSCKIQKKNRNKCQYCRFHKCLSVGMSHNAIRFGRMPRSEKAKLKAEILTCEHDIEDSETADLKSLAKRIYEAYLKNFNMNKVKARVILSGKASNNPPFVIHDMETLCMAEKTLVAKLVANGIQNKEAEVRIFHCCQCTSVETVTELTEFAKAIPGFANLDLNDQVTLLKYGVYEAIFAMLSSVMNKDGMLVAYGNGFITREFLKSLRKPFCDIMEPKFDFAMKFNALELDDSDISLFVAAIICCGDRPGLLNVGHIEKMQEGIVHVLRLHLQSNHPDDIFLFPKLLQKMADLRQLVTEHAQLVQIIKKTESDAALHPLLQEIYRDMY
From the text: It is specific (>600-fold and>2500-fold compared with PPARα and peroxisome proliferator-activated receptor-γreceptors). PPARδ activation stimulates fatty acid oxidation and utilization, improves plasma lipid and lipoprotein metabolism, glucose utilization, and mitochondrial respiration, and preserves stem cell homeostasis.

[2] = test system: wild-type female C57BL/6 mice; test: Lieber-DeCarli ethanol diet mouse model of alcoholic liver disease; type: in vivo; conditions: for liver histology, hematoxylin and eosin (H+E): formalin-fixed liver sections; for hepatic lipid accumulation, oil red staining: frozen liver sections; for ALT: plasma; for ALT / Total bile acids / Hepatic TGs / Plasma LPS / FA (fecal albumin): mean (SEM); for Total bile acids: LC-MS; for FA (fecal albumin): feces at 7.5 weeks
From the text: Age-matched wild-type female C57BL/6 mice (Charles River, Wilmington, Mass.), 8-9 weeks old at the initiation of the study, were used.
The Lieber-DeCarli ethanol diet was originally developed by Charles Lieber and Leonore DeCarli in 1963. This diet allows for the prolonged exposure of ethanol in a rodent model and allows for modification to calories provided by ethanol. […] The caloric intake from ethanol was 0% on day 1, 10% on days 2 and 3, 20% on days 4 and 5, 30% from day 6 until the end of 6 weeks, and 36% for the last 2 weeks, for a total in-life time of eight weeks. The ethanol-fed mice also received one bolus dose of 33% v/v ethanol at 5 g/Kg on the last in-life day. The control diet contained an isocaloric substitution of isomaltose for the ethanol. […] In the prevention portions of the study, including with the control diet, seladelpar was added throughout the entire study period; in the intervention portion of the study, seladelpar was added only for the fifth through eighth weeks. Fresh feces were collected at 7.5 weeks. All mice were sacrificed after eight weeks; the ethanol-fed mice eight hours after the ethanol bolus. At sacrifice, body and liver weight were recorded; and blood/plasma, liver, gallbladder, small and large intestine (wall and contents) and cecum were harvested. Analyses included plasma ALT—to measure […]; hepatic TGs; plasma lipopolysaccharides (LPS)—to measure the extent of bacterial leakage from the intestine into the blood; fecal albumin (FA)—to measure the extent of albumin leakage from the blood into the intestine (feces); and total bile acids, measured by liquid chromatography-mass spectrometry (LC-MS) generally according to the method described in Hartmann et al., “Modulation of the Intestinal Bile Acid/Farnesoid X Receptor/Fibroblast Growth Factor 15 Axis Improves Alcoholic Liver Disease in Mice”, Hepatology, 67(6), 2150-2166 (2018).
The study results are given in the table below: standard errors of the means are in parentheses, n denotes the number of mice measured, and ANOVA denotes the significance value of an ANOVA analysis between groups 3, 4, and 5:
Formalin-fixed liver sections were stained for histological examination with hematoxylin and eosin (H+E).
Frozen liver sections were cut and stained with oil red 0 for hepatic lipid accumulation analysis.

[3] = test system: subjects with diagnosed alcoholic liver disease (acute alcoholic hepatitis); test: Clinical (intravenous), subjects with acute alcoholic hepatitis; type: in vivo, human; conditions: intravenous 2-100 mg/day for up to 30 days
Description: At each assessment blood is drawn; and a standard metabolic panel and complete blood count are performed. Blood is analyzed for bilirubin, creatinine, prothrombin time (International Normalized Ratio—INR), TGs, liver transaminases, high sensitivity C-reactive protein (hsCRP), interleukin-18, and TNF-α.

[4] = test system: subjects with diagnosed alcoholic liver disease (alcoholic fatty liver); test: Clinical (oral), subjects with alcoholic fatty liver; type: in vivo, human; conditions: oral 2-100 mg/day for 6 months
Description: Subjects are permitted their usual other medications (e.g. antidiabetic medications such as metformin or […]) but not glitazones, PPAR agonists, OCA, or similar medications. […] At each visit, after a 12-hour fast, blood is drawn and urine collected; and a standard metabolic panel, complete blood count, and standard urinalysis are performed. Blood is analyzed for bilirubin, creatinine, prothrombin time (International Normalized Ratio—INR), TGs, and liver transaminases. The subjects also maintain health diaries, which are reviewed at each visit.

[5] = alcohol diet (group 3 vs groups 4 and 5, prevention and intervention)
[6] = alcohol diet, untreated group 3 vs seladelpar groups 4 and 5, ANOVA <0.001
[7] = group 2: control diet with seladelpar prevention, 10 mg/Kg/day oral, 8 weeks

SMILES: CCO[C@H](COc1ccc(C(F)(F)F)cc1)CSc1ccc(OCC(=O)O)c(C)c1 [seladelpar, [4-({(2R)-2-ethoxy-3-[4-(trifluoromethyl)phenoxy]propyl}sulfanyl)-2-methylphenoxy]acetic acid]
- NASH pathology [1]: improves NASH pathology (reducing hepatic steatosis and inflammation, and improving fibrosis)
- specificity for PPARδ compared with PPARα (PPARα): > 600 fold
- liver histology, hematoxylin and eosin (H+E) [2, 5]: significant reduction of steatosis and restoration of a more normal architecture
- hepatic lipid accumulation, oil red staining [2, 5]: significant reduction of stainable lipid droplets
- change in serum ALT ([2]; alcohol diet, untreated group 3 vs seladelpar groups 4 and 5 (prevention and intervention), ANOVA <0.001): significant reductions (improvements)
- change in serum LPS ([2]; alcohol diet, untreated group 3 vs seladelpar groups 4 and 5, ANOVA 0.034): significant reductions (improvements)
- change in hepatic TGs [2, 6]: significant reductions (improvements)
- change in total bile acids [2, 6]: significant reductions (improvements)
- liver histology, hematoxylin and eosin (H+E) ([2]; control diet (groups 1 vs 2)): no significant change
- hepatic lipid accumulation, oil red staining ([2]; control diet (groups 1 vs 2)): no significant change
- effect on ALT, hepatic TGs, LPS, fecal albumin and total bile acids ([2]; control diet groups, seladelpar prevention (group 2 vs 1)): does not significantly affect
- ALT ([2]; group 2: control diet with seladelpar prevention, 10 mg/Kg/day oral in diet for 8 weeks): 20.8 (3.5) U/L
- Total bile acids [2, 7]: 14.2 (0.6) μmol/100 g body weight
- Hepatic TGs [2, 7]: 18.9 (1.8) mg/g
- Plasma LPS [2, 7]: 787 (108) ng/mL
- FA (fecal albumin) ([2]; group 2: control diet with seladelpar prevention, 10 mg/Kg/day oral): 95 (12) ng/mg
- ALT ([2]; group 4: ethanol diet with seladelpar prevention, 10 mg/Kg/day oral in diet for 8 weeks, untreated ethanol group 3: 83.3 (16.7)): 37.8 (4.1) U/L
- Total bile acids ([2]; group 4: ethanol diet with seladelpar prevention, 10 mg/Kg/day oral, 8 weeks, group 3: 23.7 (1.6)): 16.5 (1.1) μmol/100 g body weight
- Hepatic TGs ([2]; group 4: ethanol diet with seladelpar prevention, 10 mg/Kg/day oral, 8 weeks, group 3: 29.6 (2.0)): 21.8 (1.3) mg/g
- Plasma LPS ([2]; group 4: ethanol diet with seladelpar prevention, 10 mg/Kg/day oral, 8 weeks, group 3: 1064 (204)): 723 (66) ng/mL
- FA (fecal albumin) ([2]; group 4: ethanol diet with seladelpar prevention, 10 mg/Kg/day oral, group 3: 135 (15)): 98 (8) ng/mg
- FA (fecal albumin) ([2]; group 5: ethanol diet with seladelpar intervention, 10 mg/Kg/day oral from week 5, group 3: 135 (15)): 112 (9) ng/mg
- ALT ([2]; group 5: ethanol diet with seladelpar intervention, 10 mg/Kg/day oral in diet, weeks 5-8, untreated ethanol group 3: 83.3 (16.7)): 30.9 (4.1) U/L
- Total bile acids ([2]; group 5: ethanol diet with seladelpar intervention, 10 mg/Kg/day oral, weeks 5-8, group 3: 23.7 (1.6)): 16.0 (1.1) μmol/100 g body weight
- Hepatic TGs ([2]; group 5: ethanol diet with seladelpar intervention, 10 mg/Kg/day oral, weeks 5-8, group 3: 29.6 (2.0)): 20.5 (1.3) mg/g
- Plasma LPS ([2]; group 5: ethanol diet with seladelpar intervention, 10 mg/Kg/day oral, weeks 5-8, group 3: 1064 (204)): 634 (59) ng/mL
- improvement in disease (reduction in liver transaminases, hsCRP, interleukin-18, TNF-α, Maddrey's discriminant function, MELD score) [3]: dose-related improvement
- improvement in disease (reductions in MRI-PDFF, TGs, liver transaminases) [4]: dose-related improvement
